Source: patent publication US9556203B2, “Conformationally restricted P13K and mTOR inhibitors” (UNIVERSITAET BASEL, priority 2013, dated 2017)

Tests used:
[1] = system: pPKB S473; experiment: In-cell Western blot, pPKB S473; format: cell-based; details: Homo sapiens; A2058 cells, treated 1 h, normalized to α-Tubulin
Method: (§1) A2058 cells were plated at 20,000 cells/well in a 96-well plate (Perkin Elmer, Cat. No. 6005558) and 24 h later treated with different compounds for 1 h. […] Cells were fixed with 4% paraformaldehyde for 30 min at RT, washed 2 times with 1% BSA in PBS, permeabilized with 0.1% Triton X-100 in PBS/1% BSA for 30 min at rt and blocked with 5% goat serum in PBS/1% BSA/0.1% Triton X-100 for 30 min at rt. Cells were stained with primary antibody either with rabbit anti-pPKB S473 (1:500; Cell Signalling Technology, Cat. No. 4058) combined with mouse anti-α-Tubulin (1:2000; used for normalization; Sigma, Cat. No. T9026) or with rabbit anti-pS6 S235/S236 (1:500; Cell Signalling Technology, Cat. No. 4856) combined with mouse anti-α-Tubulin (1:2000; used for normalization) over night at 4° C. After 3 times 5 min wash with PBS/1% BSA/0.1% Triton cells were treated with the secondary antibodies goat-anti-mouse IRDye680 (LICOR, Cat. No. 926-68070) and goat-anti-rabbit IRDye800 (LICOR, 926-32211) (each diluted 1:500 in PBS/1% BSA/0.1% Triton) for 1 h while shaking in the dark. Cells were washed 3 times 5 min with PBS/1% BSA/0.1% Triton and plate scanned with the Odyssey Infrared Scanning system using both 700 and 800 nm channels. […] To correct for background staining in the data analysis wells were treated only with secondary antibodies.
(§2) For data analysis the mean background signal from channel 700 nm and 800 nm were subtracted from each signal in channel 700 nm and 800 nm, respectively. The signals in each channel were normalized to the 0% inhibition and then signal ratio 800 nm over 700 nm was performed to obtain the values for either pPBK S473 or pS6 S235/S236 normalized to α-Tubulin.
(§3) IC50 values of each compound were determined by plotting the normalized pPBK S473 and pS6 S235/S236 signals, respectively, versus the compound concentrations (in logarithmic scale) and then by fitting a sigmoidal dose-response curve with variable slope to the data using GraphPad™ Prism.

[2] = target: T1, PI3K alpha (p110α) (Homo sapiens, UniProt P42336); experiment: In vitro PI3K alpha binding assay (time-resolved FRET, Tracer 314); details: N-terminally His-tagged PI3K alpha, 20 nM Tracer 314, 1 h at rt
T1 construct: purchased Life Technologies PV4789
T1 sequence (P42336 whole entry): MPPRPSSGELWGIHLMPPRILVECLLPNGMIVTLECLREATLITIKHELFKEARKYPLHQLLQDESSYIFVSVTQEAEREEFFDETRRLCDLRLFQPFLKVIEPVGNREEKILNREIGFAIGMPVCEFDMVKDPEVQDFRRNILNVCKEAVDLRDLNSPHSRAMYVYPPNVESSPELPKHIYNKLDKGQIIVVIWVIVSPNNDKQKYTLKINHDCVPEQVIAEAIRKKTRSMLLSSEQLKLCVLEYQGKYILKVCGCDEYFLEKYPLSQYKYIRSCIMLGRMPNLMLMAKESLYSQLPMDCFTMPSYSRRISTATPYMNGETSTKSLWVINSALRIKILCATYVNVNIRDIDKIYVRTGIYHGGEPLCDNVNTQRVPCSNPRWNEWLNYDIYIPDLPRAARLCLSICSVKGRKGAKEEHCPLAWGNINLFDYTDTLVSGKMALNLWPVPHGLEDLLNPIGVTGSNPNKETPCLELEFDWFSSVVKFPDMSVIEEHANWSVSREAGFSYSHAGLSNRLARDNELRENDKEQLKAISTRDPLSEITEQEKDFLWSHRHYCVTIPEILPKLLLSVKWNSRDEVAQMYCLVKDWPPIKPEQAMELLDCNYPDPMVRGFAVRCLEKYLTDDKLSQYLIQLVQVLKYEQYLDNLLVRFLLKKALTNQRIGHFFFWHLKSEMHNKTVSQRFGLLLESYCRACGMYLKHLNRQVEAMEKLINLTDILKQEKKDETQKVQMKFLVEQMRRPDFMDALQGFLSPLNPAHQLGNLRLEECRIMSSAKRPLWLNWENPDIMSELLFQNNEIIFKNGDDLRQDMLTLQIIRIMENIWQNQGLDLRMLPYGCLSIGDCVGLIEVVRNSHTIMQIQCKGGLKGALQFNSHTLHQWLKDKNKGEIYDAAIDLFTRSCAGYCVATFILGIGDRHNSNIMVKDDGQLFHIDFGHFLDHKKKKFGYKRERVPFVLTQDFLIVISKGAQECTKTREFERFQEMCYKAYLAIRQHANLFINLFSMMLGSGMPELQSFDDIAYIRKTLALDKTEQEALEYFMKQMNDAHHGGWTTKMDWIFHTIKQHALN
T1 sequence (P27986 whole entry partner): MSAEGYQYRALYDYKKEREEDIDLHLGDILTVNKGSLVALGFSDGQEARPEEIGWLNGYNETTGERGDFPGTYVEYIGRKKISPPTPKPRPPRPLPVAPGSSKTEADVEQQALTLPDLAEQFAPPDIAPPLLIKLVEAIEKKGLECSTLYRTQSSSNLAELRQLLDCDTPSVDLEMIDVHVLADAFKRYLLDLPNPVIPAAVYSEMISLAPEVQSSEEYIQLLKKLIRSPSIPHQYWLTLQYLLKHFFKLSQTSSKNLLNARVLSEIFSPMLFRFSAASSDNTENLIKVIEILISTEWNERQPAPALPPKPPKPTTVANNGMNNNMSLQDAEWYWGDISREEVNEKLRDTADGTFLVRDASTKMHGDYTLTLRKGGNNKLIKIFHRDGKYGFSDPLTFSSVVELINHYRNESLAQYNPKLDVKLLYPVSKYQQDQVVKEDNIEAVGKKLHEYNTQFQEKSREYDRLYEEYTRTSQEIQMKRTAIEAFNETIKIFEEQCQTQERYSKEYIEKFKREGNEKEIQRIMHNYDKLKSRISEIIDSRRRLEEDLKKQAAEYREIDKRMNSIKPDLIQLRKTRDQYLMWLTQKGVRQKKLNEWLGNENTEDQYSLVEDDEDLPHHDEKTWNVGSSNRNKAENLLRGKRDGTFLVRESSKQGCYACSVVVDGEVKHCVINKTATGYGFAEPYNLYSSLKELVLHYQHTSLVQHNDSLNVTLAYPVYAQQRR
Method: N-terminally His-tagged PI3K alpha (Cat. No. PV4789; 0.49 mg/ml), Alexa Fluor® 647 labeled kinase Tracer 314 (Cat. No. PV6087), Biotin anti-His Tag antibody (Cat. No PV6089) and LanthaScreen® Eu-Streptavidin (Cat. No. PV5899) were purchased from Life Technologies. The 1× Kinase Buffer A consists of 50 mM HEPES pH 7.5, 10 mM MgCl2, 1 mM EGTA, and 0.01% (v/v) Brij-35 (Sigma Cat. No. B4184-100ML).
A 4-fold serial dilution of each compound to be tested was prepared in DMSO (master dilution) in a 96-well polystyrene plate (Falcon Cat. No. 353072, flat bottom) with the highest concentration at 1000 μM and the lowest at 0.004 μM. The master dilution series were diluted further 33.3-fold into Kinase Buffer A by transferring 5 μl of each concentration of diluted compound to 162 μl Kinase Buffer A in a new 96-well plate resulting to a 3-fold serially compound dilution. Based on a Tracer 314 titration experiment a working concentration of 20 nM was chosen. Therefore a 60 nM Tracer 314 solution in Kinase Buffer A was prepared resulting in a 3-fold concentrated solution. A 3-fold concentrated kinase/antibody solution at 15 nM kinase, 6 nM antibody and 6 nM Eu-Streptavidin was prepared in Kinase Buffer A. Five μl of each 3× serially diluted compound were dispensed in a 384-well plate in duplicate. Then to each well 5 μl of 3× kinase/antibody mixture was added followed by the addition of 5 μl 3× Tracer 314 solution. After 1 h incubation at rt, time-resolved FRET was measured with a Synergy 4 multi-mode microplate reader (Biotek Instruments) using the following settings: 100 μs delay before data collection, 200 μs time for data collection, 10 measurements per data point. Emission filter: 665 nm/8 nm with sensitivity set to 163 and 620 nm/10 nm with sensitivity set to 135; Excitation filter: 340 nm/30 nm; Dichroic mirror 400 nm.
For data analysis, emission ratio was calculated by dividing the signal emitted at 665 nm from the acceptor (Alexa Fluor® 647 labeled Tracer 314) by the signal emitted at 620 nm from the donor (Eu-labeled antibody). IC50 values of each compound were determined by plotting the emission ratio versus the compound concentrations (in logarithmic scale) and then by fitting a sigmoidal dose-response curve with variable slope to the data using GraphPad™ Prism.

[3] = system: pS6 S235/236; experiment: In-cell Western blot, pS6 S235/236; format: cell-based; details: Homo sapiens; A2058 cells, treated 1 h, normalized to α-Tubulin
Method: as §1, §2, §3

| Compound | IC50 [2] [nM] | IC50 [1] [nM] | IC50 [3] [nM] |
| --- | --- | --- | --- |
| Nc1cc(C(F)(F)F)c(-c2nc(N3CCOCC3)c3c(n2)N2CCOC[C@H]2C3)cn1 [Compound 6, (R)-5-(4-morpholino-5a,6,8,9-tetrahydro-5H-pyrimido[5′,4′:4,5]pyrrolo[2,1-c][1,4]oxazin-2-yl)-4-(trifluoromethyl)pyridin-2-amine] | 390 | 425 | 696 |
| Nc1ncc(-c2nc(N3CCOCC3)c3c(n2)N2CCOC[C@H]2C3)cn1 [Compound 9, (R)-5-(4-morpholino-5a,6,8,9-tetrahydro-5H-pyrimido[5′,4′:4,5]pyrrolo[2,1-c][1,4]oxazin-2-yl)pyrimidin-2-amine] | 411 | 145 | 65 |
| Nc1cc(C(F)(F)F)c(-c2nc(N3CCOCC3)nc3c2C[C@@H]2COCCN32)cn1 [Compound 38, (R)-5-(2-morpholino-5a,6,8,9-tetrahydro-5H-pyrimido[5′,4′:4,5]pyrrolo[2,1-c][1,4]oxazin-4-yl)-4-(trifluoromethyl)pyridin-2-amine] | 2620 | 5910 | 9080 |
| Nc1ncc(-c2nc(N3CCOCC3)nc3c2C[C@H]2COCCN32)cn1 [Compound 57, (S)-5-(2-morpholino-5a,6,8,9-tetrahydro-5H-pyrimido[5′,4′:4,5]pyrrolo[2,1-c][1,4]oxazin-4-yl)pyrimidin-2-amine] | 1640 | 1260 | 594 |

Now from value to molecule, other results behind:

| IC50 [2] [nM] | Compound | IC50 [1] [nM] | IC50 [3] [nM] |
| --- | --- | --- | --- |
| 98.1 | Nc1cc(C(F)(F)F)c(-c2nc(N3CCOCC3)c3c(n2)N2CCOC[C@@H]2C3)cn1 [Compound 22, (S)-5-(4-morpholino-5a,6,8,9-tetrahydro-5H-pyrimido[5′,4′:4,5]pyrrolo[2,1-c][1,4]oxazin-2-yl)-4-(trifluoromethyl)pyridin-2-amine] | 428 | 1090 |
| 76 | Nc1ncc(-c2nc(N3CCOCC3)c3c(n2)N2CCOC[C@@H]2C3)cn1 [Compound 25, (S)-5-(4-morpholino-5a,6,8,9-tetrahydro-5H-pyrimido[5′,4′:4,5]pyrrolo[2,1-c][1,4]oxazin-2-yl)pyrimidin-2-amine] | 154 | 98 |
| 231 | Nc1ncc(-c2nc(N3CCOCC3)nc3c2C[C@@H]2COCCN32)cn1 [Compound 41, (R)-5-(2-morpholino-5a,6,8,9-tetrahydro-5H-pyrimido[5′,4′:4,5]pyrrolo[2,1-c][1,4]oxazin-4-yl)pyrimidin-2-amine] | 575 | 574 |
| 383 | Nc1cc(C(F)(F)F)c(-c2nc(N3CCOCC3)nc3c2C[C@H]2COCCN32)cn1 [Compound 54, (S)-5-(2-morpholino-5a,6,8,9-tetrahydro-5H-pyrimido[5′,4′:4,5]pyrrolo[2,1-c][1,4]oxazin-4-yl)-4-(trifluoromethyl)pyridin-2-amine] | 833 | 2110 |
